Assays:
[1] = system: cerebral vessels in the ischemic penumbra; assay: Angiogenesis after MCAo, combination study (BrdU endothelial cells, three-dimensional vessel analysis); assay type: in vivo, rat; conditions: vs control MCAo group
Method: (§1) Male Wistar rats (n=32) were subjected to middle cerebral artery occlusion (MCAo) and were randomized with 8 rats in four treatment groups, with treatment initiated 1 day after stroke. Groups included: 1) phosphate buffered saline (PBS); 2) subtherapeutic DETA-NONOate (NN) at a dose of 0.4 mg/kg (IP); 3) subtherapeutic hMSCs (1×10^6 cells-iv); and 4) combination subtherapeutic NN and hMSCs. Functional outcome measurements consisted of a Neurologic Severity Scale (18 point scale) (NSS) and the Adhesive Removal Test performed prior to stroke, immediately before treatment and at 7 and 14 days after treatment. […] However, there was an overall hMSC effect on NSS at 14 days.
Enlarged and thin walled vessels are termed “mother” vessels and have been found under conditions of cerebral ischemic angiogenesis.
FIGS. 11B and C are computer generated three-dimensional images derived from the original images. Different colors in FIG. 11B represent individual vessels, which were not connected to each other. Green and red colors in FIG. 11C code for diameter of blood vessels less then 7.5 μm (red) and larger then 7.5 μm (green), respectively. […] Enlarged vessels can develop into capillaries after ischemia.

rat VEGF [2] = assay: ELISA for VEGF in ischemic boundary regions; assay type: in vivo; conditions: control 13.4±1.5
Method: (§2) DETANONOate (0.4 mg/kg) was intravenously administered to rats (n=8) 24 hours after stroke and daily (i.p) for an additional 6 consecutive days. Ischemic rats (n=8) treated with the same volume of decayed DETANONOate were used as a control group. All rats were sacrificed 14 days after stroke. 2) To examine the effect of exogenous NO on brain levels of VEGF, DETANONOate (0.4 mg/kg) or saline was administered to ischemic rats (n=3 for each group) with the identical paradigm described in Protocol 1. These rats were sacrificed 7 days after stroke. […] Rats were sacrificed 14 days after stroke.
The ischemic boundary regions and homologous tissue in the contralateral hemisphere were dissected. The tissue was homogenized and centrifuged at 10,000 g for 20 min at 4° C. and the supernatant was collected. ELISA for VEGF in the supernatants was performed using a commercially available kit specific for rat VEGF (R&D, systems) according to the manufacture's instruction.

[3] = system: Mouse brain-derived endothelial cells; assay: Capillary-like tube formation assay; assay type: cell-based
Method: An in vitro angiogenesis assay was performed. Briefly, 0.8 ml of growth factor reduced Matrigel (Becton Dickinson) was added to pre-chilled 35 mm culture dishes and allowed to polymerize at 37° C. for 2 to 5 hours. […] For quantitative measurements of capillary tube formation, three random areas of Matrigel dishes were imaged and the length of continuous cords of three or more cells was measured.

rat VEGF [4] = assay: Sandwich ELISA of VEGF secretion from endogenous cells after MCAo; assay type: in vivo; conditions: vs MCAo control group
Method: as §1
To obtain insight into the mechanisms associated with the induction of angiogenesis and neurogenesis, the fact that combination therapy induces the expression of neurotrophic and growth factors in brain was tested. Data are presented on the levels of vascular endothelial growth factor (VEGF) in brain after treatment with MSCs.

[5] = system: cerebral vessels in the ischemic boundary regions; assay: Angiogenesis in ischemic brain after embolic MCA occlusion (vascular perimeters, BrdU endothelial cells, three dimensional vessel analysis); assay type: in vivo, rat
Method: Male Wistar rats weighing 320-380 gm were employed. The middle cerebral artery (MCA) was occluded by placement of an embolus at the origin of the MCA.
as §2
Bromodeoxyuridine (BrdU, Sigma Chemical), the thymidine analog that is incorporated into the DNA of dividing cells during S-phase, was used for mitotic labeling. BrdU (50 mg/kg) was […] (i.p) daily for 13 consecutive days into ischemic rats starting 1 day after MCA occlusion.
To examine neovascularization in ischemic brain, fluorescein isothiocyanate (FITC) dextran (2×10^6 molecular weight, Sigma, St. Louis, Mo.; 0.1 ml of 50 mg/ml) was administered intravenously to the ischemic rats subjected to 14 days of MCAo. Ti brains were rapidly removed from the severed heads and placed in 4% of paraformaldehyde at 4° C. for 48 hours. Coronal sections (100 μm) were cut on a vibratome. The vibratome sections were analyzed with a Bio-Rad MRC 1024 (argon and krypton) laser-scanning confocal imaging system mounted onto a Zeiss microscope (Bio-Rad; Cambridge, Mass.), as previously described. Seven 100 μm thick vibratome coronal sections at 2 mm intervals from bregma 5.2 mm to bregma −8.8 mm from each animal injected with FITC-dextran were selected. Eight brain regions in the ipsilateral and contralateral hemispheres were selected within a reference coronal section (interaural 8.8 mm, bregma 0.8 mm). These regions were scanned in 512×512 pixel (276×276 μm^2) format in the x-y direction using a 4× frame-scan average and twenty-five optical sections along the z-axis with a 1 μm step-size were acquired under a 40× objective. Vascular branch points, segment lengths and diameters were measured in three dimensions using software developed in the laboratory. Image acquisition and analysis were performed blindly.
For BrdU immunostaining, DNA was first denatured by incubating brain sections (6 μm) in 50% formamide 2×SSC at 65° C. for 2 hours and then in 2N HCl at 37° C. for 30 minutes. Sections were then rinsed with tris buffer and treated with 1% of H2O2 to block endogenous peroxidase. Sections were incubated with a mouse monoclonal antibody (mAb) against BrdU (1:1000, Boehringer Mannheim, Indianapolis, Ind. overnight and incubated with biotinylated secondary antibody (1:200, Vector, Burlingame, Calif.) for 1 hour.
To quantify BrdU immunoreactive endothelial cells, numbers of endothelial cells and numbers of BrdU immunoreactive endothelial cells in ten enlarged vessels adjacent to the ischemic lesion were counted from each rat. Numbers of endothelial cells and BrdU immunoreactive endothelial cells in the ten vessels of the contralateral homologous area were also counted. Data are presented as percentage of BrdU immunoreactive endothelial cells to total endothelial cells in ten enlarged vessels from each rat.
Vascular perimeters were measured on coronal sections immunostained with an anti-von Willebrand factor antibody as previously described.

[6] = DETANONOate 0.4 mg/kg, three dimensional analysis

Row | SMILES | BrdU immunoreactive endothelial cells in enlarged vessels, ipsilateral hemisphere [1] | VEGF levels in the ischemic boundary regions (rat VEGF [2]; DETANONOate 0.4 mg/kg from 24 h after stroke, 7 days after stroke, n=3) [pg/mL] | capillary-like tube formation ([3]; DETANONOate 0.2 μM, 3 hours, vs DMEM only) | VEGF secretion from endogenous cells (rat VEGF) (rat VEGF [4]) | vessel enlargement in the contralateral hemisphere ([5]; DETANONOate 0.4 mg/kg from 24 h after stroke for 7 days, 14 days after stroke) | vascular perimeters around the ischemic lesion ([5]; DETANONOate 0.4 mg/kg from 24 h after stroke for 7 days, 14 days after stroke, vs decayed DETANONOate control) | numbers of proliferated (BrdU immunoreactive) endothelial cells ([5]; DETANONOate 0.4 mg/kg from 24 h after stroke for 7 days, vs control) | capillary segment diameters [5, 6] | capillary segment lengths [5, 6] | numbers of capillary segments in the boundary regions of ischemia ([5]; DETANONOate 0.4 mg/kg, three dimensional analysis, vs decayed DETANONOate) | VEGF levels in the ischemic boundary (rat VEGF [2]; Sildenafil treated ischemic rats, n=3 per group) [pg/mL] | capillary-like tube formation ([3]; Sildenafil 100 to 500 nM) | angiogenesis in ischemic brain ([5]; Sildenafil 2 mg/kg fed from 24 h after stroke, daily 7 days, 14 days after stroke)
1 | NCCN(CCN)/[N+]([O-])=N/O [DETANONOate, (Z)-1-[N-(2-aminoethyl)-N-(2-ammonioethyl)aminio]diazen-1-ium-1,2-diolate] | significant (p<0.05) increase | 28.9 ± 1.0 | significant increase in capillary-like tube formation | did not show a significant increase | did not enlarge vessels in the contralateral hemisphere | significantly (P<0.01) enlarged vascular perimeters | significantly (p<0.05) increased | significantly smaller diameters | shorter segment lengths | significantly (p<0.05) increased the numbers of capillary segments |  |  | 
2 | CCCc1nn(C)c2c(=O)[nH]c(-c3cc(S(=O)(=O)N4CCN(C)CC4)ccc3OCC)nc12 [Sildenafil] |  |  |  |  |  |  |  |  |  |  | 34.4 ± 2.9 | concentration-dependent capillary-like tube formation | significant increase of angiogenesis
